Data: ChEMBL document CHEMBL1201862, “PubChem BioAssay data set” (2004)
The source made the active and inactive calls.

What was measured:
Protein RecA = target: T1, Protein RecA (Mycobacterium tuberculosis, UniProt P9WHJ3); test: Fluorescence Cell-Free Homogeneous Dose Retest to Identify Inhibitors of RecA-Intein Splicing Activity. [Related pubchem assays (depositor defined):AID2097, AID2223, AID489010, AID492950]; assay type: functional
T1 sequence (P9WHJ3 whole entry): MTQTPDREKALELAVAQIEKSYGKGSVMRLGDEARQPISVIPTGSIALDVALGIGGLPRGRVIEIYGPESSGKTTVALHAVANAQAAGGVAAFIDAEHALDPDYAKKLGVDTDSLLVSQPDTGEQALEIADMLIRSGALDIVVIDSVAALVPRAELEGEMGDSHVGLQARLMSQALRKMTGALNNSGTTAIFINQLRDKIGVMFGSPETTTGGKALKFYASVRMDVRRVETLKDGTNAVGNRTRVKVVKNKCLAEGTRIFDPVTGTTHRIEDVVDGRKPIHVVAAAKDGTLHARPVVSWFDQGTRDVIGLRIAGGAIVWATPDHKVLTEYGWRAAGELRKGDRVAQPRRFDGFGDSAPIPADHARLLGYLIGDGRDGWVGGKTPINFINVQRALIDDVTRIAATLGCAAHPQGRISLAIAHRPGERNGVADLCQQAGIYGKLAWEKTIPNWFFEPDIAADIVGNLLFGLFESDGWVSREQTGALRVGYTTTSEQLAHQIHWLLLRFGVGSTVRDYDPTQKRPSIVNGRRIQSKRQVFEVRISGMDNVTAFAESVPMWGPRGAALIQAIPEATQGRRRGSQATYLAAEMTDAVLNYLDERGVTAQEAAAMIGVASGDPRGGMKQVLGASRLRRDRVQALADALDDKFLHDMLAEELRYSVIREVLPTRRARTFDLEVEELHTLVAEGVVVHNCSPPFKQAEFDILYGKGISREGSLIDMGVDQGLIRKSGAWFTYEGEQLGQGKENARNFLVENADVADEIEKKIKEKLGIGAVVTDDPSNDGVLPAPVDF

[1] = target: T2, Replicative DNA helicase DnaB (Mycobacterium tuberculosis, UniProt P9WMR3); test: DnaB intein splicing inhibitors, dose response, biochemical, cell-free fluorescence (AID 449749); assay type: functional
T2 sequence (P9WMR3 whole entry): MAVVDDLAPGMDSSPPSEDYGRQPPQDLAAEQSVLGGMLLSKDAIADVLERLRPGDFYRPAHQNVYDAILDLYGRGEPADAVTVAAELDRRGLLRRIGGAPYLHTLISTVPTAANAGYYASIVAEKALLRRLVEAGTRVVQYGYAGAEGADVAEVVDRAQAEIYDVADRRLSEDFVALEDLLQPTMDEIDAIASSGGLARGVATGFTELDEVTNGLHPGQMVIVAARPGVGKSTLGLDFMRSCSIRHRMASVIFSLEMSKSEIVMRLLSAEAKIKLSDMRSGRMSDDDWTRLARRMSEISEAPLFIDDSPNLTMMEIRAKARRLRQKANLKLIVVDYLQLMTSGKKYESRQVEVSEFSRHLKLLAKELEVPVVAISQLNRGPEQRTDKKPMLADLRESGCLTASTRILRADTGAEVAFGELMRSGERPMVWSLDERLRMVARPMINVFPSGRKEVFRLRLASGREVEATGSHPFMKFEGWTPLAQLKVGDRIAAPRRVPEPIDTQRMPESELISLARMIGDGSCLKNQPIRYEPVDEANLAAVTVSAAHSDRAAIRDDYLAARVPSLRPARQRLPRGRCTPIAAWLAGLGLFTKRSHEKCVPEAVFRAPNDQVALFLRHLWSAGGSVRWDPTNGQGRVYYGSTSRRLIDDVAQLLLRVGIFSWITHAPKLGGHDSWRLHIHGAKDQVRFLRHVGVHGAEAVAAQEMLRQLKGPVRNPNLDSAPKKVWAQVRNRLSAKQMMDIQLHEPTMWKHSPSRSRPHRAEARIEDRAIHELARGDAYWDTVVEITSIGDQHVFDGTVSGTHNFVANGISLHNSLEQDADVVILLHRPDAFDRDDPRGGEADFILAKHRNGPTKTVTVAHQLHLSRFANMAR

[2] = target: T3, Sentrin-specific protease 8 (Homo sapiens, UniProt Q96LD8); assay type: functional
T3 sequence (Q96LD8 whole entry): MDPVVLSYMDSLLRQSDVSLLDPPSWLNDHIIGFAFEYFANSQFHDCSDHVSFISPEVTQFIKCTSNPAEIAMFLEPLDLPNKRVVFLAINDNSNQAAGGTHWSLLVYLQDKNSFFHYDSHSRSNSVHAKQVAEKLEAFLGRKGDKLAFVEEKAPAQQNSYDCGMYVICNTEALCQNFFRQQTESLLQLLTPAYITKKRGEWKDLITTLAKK

[3] = target: T3, Sentrin-specific protease 8; assay type: functional; remark: listed apart in the source
[4] = target: Induced myeloid leukemia cell differentiation protein Mcl-1 (Homo sapiens, UniProt Q07820); assay type: functional
Induced myeloid leukemia cell differentiation protein Mcl-1, sequence (Q07820 whole entry): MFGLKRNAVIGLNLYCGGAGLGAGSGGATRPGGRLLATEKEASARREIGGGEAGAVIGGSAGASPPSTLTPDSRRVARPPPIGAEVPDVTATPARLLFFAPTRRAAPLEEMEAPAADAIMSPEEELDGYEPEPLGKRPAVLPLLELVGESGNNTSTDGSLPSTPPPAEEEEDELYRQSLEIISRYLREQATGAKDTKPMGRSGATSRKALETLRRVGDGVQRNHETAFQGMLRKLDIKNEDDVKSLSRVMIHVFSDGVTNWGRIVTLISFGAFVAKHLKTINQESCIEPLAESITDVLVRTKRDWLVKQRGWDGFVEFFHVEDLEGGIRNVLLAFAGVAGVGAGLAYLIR

Large T antigen = Large T antigen (Simian virus 40, UniProt P03070); assay type: functional, Betapolyomavirus macacae;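 note: Confirmatory-stage PubChem screen for compounds that inhibit SV40 T antigen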
Large T antigen, sequence (P03070 whole entry): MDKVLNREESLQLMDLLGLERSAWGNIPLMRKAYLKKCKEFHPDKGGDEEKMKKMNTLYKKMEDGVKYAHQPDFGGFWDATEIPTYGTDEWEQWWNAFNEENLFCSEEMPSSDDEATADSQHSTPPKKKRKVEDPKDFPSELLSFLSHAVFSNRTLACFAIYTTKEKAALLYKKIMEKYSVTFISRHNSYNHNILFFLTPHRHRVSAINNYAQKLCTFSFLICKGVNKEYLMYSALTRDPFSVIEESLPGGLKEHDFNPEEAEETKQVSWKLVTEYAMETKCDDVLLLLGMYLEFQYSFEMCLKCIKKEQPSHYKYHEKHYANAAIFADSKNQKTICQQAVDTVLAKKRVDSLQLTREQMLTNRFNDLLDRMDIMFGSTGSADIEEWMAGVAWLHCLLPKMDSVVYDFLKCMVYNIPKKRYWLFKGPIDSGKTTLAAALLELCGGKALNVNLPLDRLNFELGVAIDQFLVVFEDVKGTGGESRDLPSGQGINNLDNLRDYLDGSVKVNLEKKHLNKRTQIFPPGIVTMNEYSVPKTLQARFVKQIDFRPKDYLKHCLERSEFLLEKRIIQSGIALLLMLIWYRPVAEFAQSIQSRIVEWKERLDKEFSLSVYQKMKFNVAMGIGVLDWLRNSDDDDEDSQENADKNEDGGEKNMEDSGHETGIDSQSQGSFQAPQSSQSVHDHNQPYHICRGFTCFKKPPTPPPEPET

[5] = target: Dual specificity tyrosine-phosphorylation-regulated kinase 1A (Rattus norvegicus, UniProt Q63470); assay type: biochemical, Homo sapiens
P388/ADR = test: cells; assay type: functional; settings: Mus musculus
P388 = test: cells; assay type: functional; settings: Mus musculus
SN12K1 = test: cells; assay type: functional; settings: Homo sapiens
cells = assay type: functional, cell-based
[6] = target: T4, DNA repair protein RAD52 homolog (Homo sapiens, UniProt P43351); assay type: functional, biochemical
T4 sequence (P43351 whole entry): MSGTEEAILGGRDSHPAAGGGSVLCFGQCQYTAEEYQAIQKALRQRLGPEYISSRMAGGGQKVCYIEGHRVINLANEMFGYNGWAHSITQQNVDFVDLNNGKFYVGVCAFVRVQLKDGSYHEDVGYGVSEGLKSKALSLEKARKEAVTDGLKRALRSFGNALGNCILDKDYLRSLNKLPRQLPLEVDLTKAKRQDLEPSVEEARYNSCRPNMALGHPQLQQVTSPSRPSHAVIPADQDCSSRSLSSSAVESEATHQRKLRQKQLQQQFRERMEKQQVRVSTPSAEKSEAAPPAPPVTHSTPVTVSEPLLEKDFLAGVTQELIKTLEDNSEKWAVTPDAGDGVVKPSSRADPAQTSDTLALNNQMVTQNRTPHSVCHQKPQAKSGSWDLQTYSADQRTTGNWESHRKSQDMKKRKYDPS

[7] = cytotoxicity in HEK-293T cells, dose response, cytotoxicity control for TCR NF-kB inhibitor project, luminescence, T-cell screen hits (AID 489026); assay type: functional, cell-based;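 note: cells exposed to compound about 14 hours before the viability readout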
BJ [8] = test: cells; assay type: functional, cell-based; settings: Homo sapiens
[9] = cytotoxicity toward DRD oncogenic fibroblasts, dose response, cell-based, non-viral oncogenic, luminescence (AID 1934); assay type: functional; settings: Homo sapiens
BJ [10] = test: cytotoxicity toward BJ-TERT fibroblasts, dose response, cell-based, RAS-independent, luminescence (AID 1933); assay type: functional; settings: Homo sapiens
BJ [11] = test: cytotoxicity toward BJ-TERT-LT-ST fibroblasts, dose response, cell-based, RAS-independent, luminescence (AID 1935); assay type: functional; settings: Homo sapiens;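 note: BJ fibroblasts immortalized with TERT plus LT and ST oncogenes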
Cytochrome P450 2C19 = Cytochrome P450 2C19 (Homo sapiens, UniProt P33261); test: Cytochrome panel assay with activity outcomes. Panel member name: p450-cyp2c19 Compounds with AC50 equal or less than 10 uM are considered active; assay type: functional; settings: read-out: AC50
Cytochrome P450 2C19, sequence (P33261 whole entry): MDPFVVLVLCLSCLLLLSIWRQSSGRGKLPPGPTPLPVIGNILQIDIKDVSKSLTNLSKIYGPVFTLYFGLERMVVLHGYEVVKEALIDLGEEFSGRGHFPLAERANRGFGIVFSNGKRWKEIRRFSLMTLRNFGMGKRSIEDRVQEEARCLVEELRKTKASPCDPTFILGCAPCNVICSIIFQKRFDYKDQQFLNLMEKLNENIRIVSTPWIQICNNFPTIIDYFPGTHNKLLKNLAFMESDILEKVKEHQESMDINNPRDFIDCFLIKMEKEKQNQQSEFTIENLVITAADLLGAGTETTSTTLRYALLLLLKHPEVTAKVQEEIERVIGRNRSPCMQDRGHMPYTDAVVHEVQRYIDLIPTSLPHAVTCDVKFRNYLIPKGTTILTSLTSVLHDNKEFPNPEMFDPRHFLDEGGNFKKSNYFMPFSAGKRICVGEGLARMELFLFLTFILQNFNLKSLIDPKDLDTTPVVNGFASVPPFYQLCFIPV

Cytochrome P450 2C9 = Cytochrome P450 2C9 (Homo sapiens, UniProt P11712)
Cytochrome P450 2C9, sequence (P11712 whole entry): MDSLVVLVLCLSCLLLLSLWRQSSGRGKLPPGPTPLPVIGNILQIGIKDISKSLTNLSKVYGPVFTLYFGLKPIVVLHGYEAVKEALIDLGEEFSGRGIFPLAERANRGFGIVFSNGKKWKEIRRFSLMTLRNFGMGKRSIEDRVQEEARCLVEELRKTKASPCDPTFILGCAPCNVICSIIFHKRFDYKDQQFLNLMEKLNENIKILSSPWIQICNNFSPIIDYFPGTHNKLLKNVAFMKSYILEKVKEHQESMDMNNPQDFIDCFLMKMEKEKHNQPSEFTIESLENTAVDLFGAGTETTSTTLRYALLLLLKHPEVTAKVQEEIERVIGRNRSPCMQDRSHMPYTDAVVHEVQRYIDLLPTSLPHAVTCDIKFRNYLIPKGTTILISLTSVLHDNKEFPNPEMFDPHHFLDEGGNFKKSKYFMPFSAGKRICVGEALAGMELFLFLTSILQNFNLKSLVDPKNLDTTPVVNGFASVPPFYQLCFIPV

Cytochrome P450 3A4 = Cytochrome P450 3A4 (Homo sapiens, UniProt P08684);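 note: CYP3A4 tested as one member of a cytochrome P450 panel screen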
Cytochrome P450 3A4, sequence (P08684 whole entry): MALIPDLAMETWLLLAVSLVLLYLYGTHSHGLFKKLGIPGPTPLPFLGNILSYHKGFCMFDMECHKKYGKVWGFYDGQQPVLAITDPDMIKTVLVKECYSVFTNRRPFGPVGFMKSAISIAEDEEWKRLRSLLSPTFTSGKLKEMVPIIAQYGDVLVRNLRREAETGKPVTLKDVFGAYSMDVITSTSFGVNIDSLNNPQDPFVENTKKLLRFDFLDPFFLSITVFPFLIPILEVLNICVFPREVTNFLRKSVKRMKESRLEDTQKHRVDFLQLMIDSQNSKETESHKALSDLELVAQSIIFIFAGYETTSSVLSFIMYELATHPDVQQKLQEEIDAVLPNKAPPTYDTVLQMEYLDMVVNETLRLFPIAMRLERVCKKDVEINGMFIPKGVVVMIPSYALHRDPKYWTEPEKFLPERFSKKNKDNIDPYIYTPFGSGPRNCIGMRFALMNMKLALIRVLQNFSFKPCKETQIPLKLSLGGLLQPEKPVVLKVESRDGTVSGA

## COc1cccc(N/C([S-])=C(/C(=O)c2ccc(OC(F)F)cc2)[n+]2ccccc2)c1
Protein RecA
  EC50: 8.62 µM (active)
[1]
  AC50: 23.9 µM (active)
[2]
  IC50: 6 µM (active)
[3]
  IC50: 3.93 µM (active)

## CCOc1cc(/C=N/Nc2nc(-c3cccs3)c(NC(C)=O)s2)ccc1O
[4]
  IC50: 3.51 µM (active)
Large T antigen
  IC50: 30.5 µM (active)

## COc1ccc(-c2csc(N=C(N)N)n2)cc1
[5]
  AC50: 0.541 µM (active)

## CCCCC(NC(=O)CC)C(=O)O (stereo not given)
P388/ADR
  GI50: > 100 µM (inactive)
P388
  GI50: > 100 µM (inactive)
SN12K1
  GI50: > 100 µM (inactive)

## C#CCn1c(=O)c(C#N)c(O)c2cc3ccccc3nc21
P388/ADR
  GI50: > 100 µM (inactive)
P388
  GI50: > 100 µM (inactive)
SN12K1
  GI50: > 100 µM (inactive)

## CCOc1cc(CNc2ccc(N3CCN(C(C)=O)CC3)cc2)cc(Br)c1OC
Large T antigen
  IC50: 8.75 µM (active)

## COC(=O)C1OC(Oc2cc(O)c3c(=O)cc(-c4ccc(O)cc4)oc3c2)C(O)C(O)C1O (stereo not given)
P388/ADR
  GI50: > 35.5 µM (inactive)
SN12K1
  GI50: > 100 µM (inactive)

## CCCCC1=C(Br)C(=C(Br)Br)OC1=O
P388/ADR
  GI50: 0.443 µM (active)
P388
  GI50: 0.505 µM (active)
SN12K1
  GI50: 1.96 µM (inactive)

## O=C1NC(c2cccc3ccccc23)Nc2ccc(O)cc21 (stereo not given)
P388/ADR
  GI50: 24.8 µM (inactive)
P388
  GI50: 19 µM (inactive)
SN12K1
  GI50: 36.7 µM (inactive)

## CC(NC(=O)C12CC3CC(CC(O)(C3)C1)C2)c1ccc(Cl)cc1Cl (stereo not given)
cells
  EC50: > 350 µM (not active)

## CC(C(=O)c1ccc(-c2ccccc2)cc1)[n+]1cccc(NC(=O)c2ccccc2)c1 (stereo not given)
[6]
  AC50: 19.1 µM (active)

## Cc1c2cc[n+](C)cc2c(C)c2c1[nH]c1ccc(O)cc12 [ELLIPTINIUM ACETATE]
P388/ADR
  GI50: 1.92 µM (inactive)
P388
  GI50: 0.131 µM (active)
SN12K1
  GI50: 2.98 µM (inactive)

## Cc1ccc(/C=N/NC(=O)c2c(C)nc3ccc(Br)cn23)cc1
[7]
  IC50: > 80 µM (inactive)

## COc1ccccc1/C=C1\CCC(CN(C)C)C1=O (stereo not given)
P388/ADR
  GI50: 0.568 µM (active)
P388
  GI50: 0.608 µM (active)
SN12K1
  GI50: 2.05 µM (inactive)

## COc1cccc2c1C(=O)c1c(O)c3c(c(O)c1C2=O)C[C@@](O)(C(C)=O)C[C@@H]3OC1CC(N(Cc2ccccc2)Cc2ccccc2)C(O)C(C)O1 (stereo not given in full)
P388/ADR
  GI50: 1.57 µM (inactive)
P388
  GI50: 0.675 µM (active)
SN12K1
  GI50: 2.92 µM (inactive)

## Cc1ccccc1NS(=O)(=O)c1ccc(N2CCCC2=O)cc1
[7]
  IC50: > 80 µM (inactive)

## COc1ccc(Cl)cc1NC(=O)CN(C)CC(=O)Nc1ccccc1N1CCOCC1
BJ [8]
  EC50: 37.1 µM (active)
[9]
  EC50: 2.55 µM (active)
BJ [10]
  EC50: 3.04 µM (active)
[7]
  IC50: 70.8 µM (inactive)
BJ [11]
  EC50: 30.7 µM (active)

## Cc1nc2c(ccc3nsnc32)[nH]1
[5]
  AC50: 5.91 µM (active)

## C[C@H]1C/C=C/[C@H]2[C@@H]3O[C@]3(C)[C@@H](C)[C@H]3[C@H](Cc4ccccc4)NC(=O)[C@]32OC(=O)O/C=C/[C@@](C)(O)C1=O [CYTOCHALASIN E]
P388
  GI50: 0.0166 µM (active)
SN12K1
  GI50: < 0.01 µM (active)

## O=S(=O)(O)c1cccc(N=Nc2c(O)ccc3ccccc23)c1
[5]
  AC50: 5.88 µM (active)

## CN(C)CCNC(=O)c1cccc(-c2cnc3c(NC=O)cc(/C=C/c4ccccc4)cn23)c1
[6]
  AC50: 2.21 µM (active)

## CN/C(=C/[N+](=O)[O-])NCCSCc1ccc(CN(C)C)o1
[6]
  AC50: 18 µM (active)

## COc1ccc(NC(=O)/C(C#N)=C\c2ccc(-c3cccc(C(=O)O)c3C)o2)cc1
[5]
  AC50: 1.7 µM (active)

## Cc1nc(NC(N)=Nc2ccccc2)nc2ccccc12
Cytochrome P450 2C19
  AC50: 39.8 µM (inconclusive)
Cytochrome P450 2C9
  AC50: inconclusive
Cytochrome P450 3A4
  AC50: 39.8 µM (inconclusive)

## Cc1nc(C)c(-c2csc(Nc3ccc(N)cc3)n2)s1
Large T antigen
  IC50: 11.5 µM (active)

## O=C1NC(=S)N(C2CC2)C(=O)/C1=C/NNc1ccccc1
Large T antigen
  IC50: 8.87 µM (active)

## OC(CN1CCNCC1)Cn1c2ccccc2c2ccccc21 (stereo not given)
[6]
  AC50: 20.7 µM (active)

## COC(=O)c1ccc(C)cc1C1CN=NC12Cc1cc(C)ccc1C2=O (stereo not given)
[2]
  IC50: 20.9 µM (active)
[3]
  IC50: 13.9 µM (active)
